In patent US7022669B1, “Echinocandin derivatives, method for preparing same and application as antifungal agents” (Aventis Pharma S.A., priority 1999, dated 2006):

Biological target: T1, Glucan Synthase of Candida albicans (Candida albicans, UniProt O13428)
T1 construct: endogenous in cells
Assay: Inhibition of the Glucan Synthase of Candida albicans (14C-UDP glucose incorporation, membrane proteins)
Format: biochemical
Conditions: Candida albicans membranes, 25° C., 1 hour, radioactivity counted
Method: A—Inhibition of the Glucan Synthase of Candida albicans.
Candida albicans membranes were purified according to the process described by Tang et al Antimicrob. Agents Chemother 35, 99–103, 1991. 22.5 μg of membrane proteins are incubated in a mixture of 2 Mm of 14C-UDP glucose (specific activity=0.34 mCi./mmol, 50 μg of α-amylase, 1 Mm of dithiotreitol (DTT), 1 Mm EDTA, 100 Mm NaF, 7 μM of GTP-γ-S, 1M of sucrose and 50 Mm of Tris-HCL (pH 7.8) in a volume of 100 μl. The medium is incubated at 25° C. for 1 hour and the reaction is terminated by adding TCA at a final concentration of 5%. The reaction mixture is transferred onto a pre-humidified glass fibre filter. The filter is washed, dried and its radioactivity is counted. Mulundocandine is used as a positive control. Control of the vehicle is carried out with the same quantity of 1% DMSO. […] The enzyme is prepared according to the process of Beaulieu et al.(Antimicrob. Agents Chemother 38, 937–944, 1994. The protocol used is identical to the protocol described above for the enzyme of Candida albicans except that dithiotreitol is not used in the reaction mixture.

T1 sequence (O13428 1-1897): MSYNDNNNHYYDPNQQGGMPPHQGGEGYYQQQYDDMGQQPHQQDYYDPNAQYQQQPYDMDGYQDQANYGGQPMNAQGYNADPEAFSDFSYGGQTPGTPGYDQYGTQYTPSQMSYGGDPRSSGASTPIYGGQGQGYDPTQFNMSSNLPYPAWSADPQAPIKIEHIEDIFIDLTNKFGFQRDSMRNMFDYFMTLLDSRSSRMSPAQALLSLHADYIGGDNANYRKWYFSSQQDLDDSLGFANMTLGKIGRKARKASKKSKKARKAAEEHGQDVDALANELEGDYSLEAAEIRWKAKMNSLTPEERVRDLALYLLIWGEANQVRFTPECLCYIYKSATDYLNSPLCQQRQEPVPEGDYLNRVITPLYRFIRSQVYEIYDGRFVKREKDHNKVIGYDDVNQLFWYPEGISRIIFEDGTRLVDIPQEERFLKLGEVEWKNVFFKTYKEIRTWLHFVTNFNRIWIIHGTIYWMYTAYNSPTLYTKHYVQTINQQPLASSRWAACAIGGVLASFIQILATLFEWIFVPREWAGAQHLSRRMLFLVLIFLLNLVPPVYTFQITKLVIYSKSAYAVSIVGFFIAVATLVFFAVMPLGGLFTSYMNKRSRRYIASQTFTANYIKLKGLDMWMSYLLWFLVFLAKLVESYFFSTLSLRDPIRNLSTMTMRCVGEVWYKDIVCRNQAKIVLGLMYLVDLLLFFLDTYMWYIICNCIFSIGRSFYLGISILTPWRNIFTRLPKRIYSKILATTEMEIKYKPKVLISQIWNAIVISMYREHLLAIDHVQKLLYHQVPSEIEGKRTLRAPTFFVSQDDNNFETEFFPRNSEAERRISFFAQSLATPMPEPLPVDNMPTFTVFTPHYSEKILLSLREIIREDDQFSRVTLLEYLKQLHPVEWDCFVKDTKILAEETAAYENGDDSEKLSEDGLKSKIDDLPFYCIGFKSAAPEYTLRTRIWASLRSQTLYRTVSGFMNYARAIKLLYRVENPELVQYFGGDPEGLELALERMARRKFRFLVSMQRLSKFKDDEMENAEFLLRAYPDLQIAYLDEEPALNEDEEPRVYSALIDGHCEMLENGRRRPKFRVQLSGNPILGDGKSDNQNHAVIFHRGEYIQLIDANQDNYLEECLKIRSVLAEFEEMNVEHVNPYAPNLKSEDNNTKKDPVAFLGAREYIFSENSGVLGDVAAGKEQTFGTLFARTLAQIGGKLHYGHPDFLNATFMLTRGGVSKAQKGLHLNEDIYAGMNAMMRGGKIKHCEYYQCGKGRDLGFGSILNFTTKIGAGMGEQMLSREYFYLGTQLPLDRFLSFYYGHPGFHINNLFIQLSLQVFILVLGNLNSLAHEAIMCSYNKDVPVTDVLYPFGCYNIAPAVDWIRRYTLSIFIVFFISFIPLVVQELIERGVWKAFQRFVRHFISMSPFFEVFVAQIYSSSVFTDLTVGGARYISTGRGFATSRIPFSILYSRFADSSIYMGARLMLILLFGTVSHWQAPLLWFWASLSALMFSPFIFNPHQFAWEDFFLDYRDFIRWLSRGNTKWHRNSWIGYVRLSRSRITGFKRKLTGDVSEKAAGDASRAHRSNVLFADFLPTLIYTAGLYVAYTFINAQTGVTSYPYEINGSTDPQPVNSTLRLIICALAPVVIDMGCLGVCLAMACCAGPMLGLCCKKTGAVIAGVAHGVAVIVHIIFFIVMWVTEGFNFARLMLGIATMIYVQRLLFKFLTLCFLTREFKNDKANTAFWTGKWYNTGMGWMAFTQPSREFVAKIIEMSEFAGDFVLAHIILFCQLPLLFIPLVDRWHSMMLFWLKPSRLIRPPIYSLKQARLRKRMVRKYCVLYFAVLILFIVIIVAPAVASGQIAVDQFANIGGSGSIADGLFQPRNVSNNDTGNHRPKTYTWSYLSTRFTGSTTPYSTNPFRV
T1 sequence (O42825 1-195 partner limits assumed): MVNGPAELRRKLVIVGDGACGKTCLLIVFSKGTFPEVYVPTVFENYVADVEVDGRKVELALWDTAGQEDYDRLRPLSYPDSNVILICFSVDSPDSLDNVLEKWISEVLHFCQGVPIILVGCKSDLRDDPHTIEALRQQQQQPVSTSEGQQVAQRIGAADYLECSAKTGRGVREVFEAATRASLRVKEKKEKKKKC

For “Trans 1-[4-[(2-aminocyclo-hexyl)-amino]-N2-[[4″-(pentyloxy) [1,1′:4′,1″-terphenyl]-4-yl]-carbonyl]-L-ornithine]-4-[4-(4-hydroxyphenyl)-L-threonine]-5-L-serine-echinocandine B trifluoroacetate (isomer A) [Example 3 isomer A]”, the “Inhibition of the glucan synthase of Candida albicans” value was “good activity”.
